Experiments:
Assay in all cases: relative viability (nuclei count vs DMSO), 5 days (fraction); higher = more cells survive
[1] = compound: C/C(=N\NC(=S)N1CCC1)/C2=CC=CC=N2 + Cc1nc(Nc2ncc(C(=O)Nc3c(C)cccc3Cl)s2)cc(N2CCN(CCO)CC2)n1 [Dasatinib] (partner 0.075 µM)
Method in brief: (§1)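 Relative viability is defined as nuclei in treated wells over nuclei in vehicle wells. Duplicate plates were run and medians reported. Lung cancer cell lines in 1536-well plates were dosed by pin tool one day after seeding, with one drug or with a fixed anchor-drug dose plus five library-drug doses (not always all listed) in √10 steps, and nuclei were counted after 5 days.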

[2] = compound: C/C(=N\NC(=S)N1CCC1)/C2=CC=CC=N2 + CS(=O)(=O)N1CCN(Cc2cc3nc(-c4cccc5[nH]ncc45)nc(N4CCOCC4)c3s2)CC1 [Pictilisib] (partner 1 µM)
Method in brief: as §1

[3] = compound: C/C(=N\NC(=S)N1CCC1)/C2=CC=CC=N2 + C[C@@H](Oc1cc(-c2cnn(C3CCNCC3)c2)cnc1N)c1c(Cl)ccc(F)c1Cl [Crizotinib] (partner 1 µM)
Method in brief: as §1

[4] = compound: C/C(=N\NC(=S)N1CCC1)/C2=CC=CC=N2 + O=C(CCCCCCC(=O)Nc1ccccc1)NO [Vorinostat] (partner 1 µM)
Method in brief: as §1

| Cell Line | relative viability ([1]; first compound 0.05 µM) | relative viability ([1]; first compound 0.1581 µM) | relative viability ([1]; first compound 0.5 µM) | relative viability ([1]; first compound 1.581 µM) | relative viability ([1]; first compound 5 µM) | relative viability ([2]; first compound 0.05 µM) | relative viability ([2]; first compound 0.1581 µM) | relative viability ([2]; first compound 0.5 µM) | relative viability ([2]; first compound 1.581 µM) | relative viability ([2]; first compound 5 µM) | relative viability ([3]; first compound 0.05 µM) | relative viability ([3]; first compound 0.1581 µM) | relative viability ([3]; first compound 0.5 µM) | relative viability ([3]; first compound 1.581 µM) | relative viability ([3]; first compound 5 µM) | relative viability ([4]; first compound 0.05 µM) | relative viability ([4]; first compound 0.1581 µM) | relative viability ([4]; first compound 0.5 µM) | relative viability ([4]; first compound 1.581 µM) | relative viability ([4]; first compound 5 µM) |
| --- | --- | --- | --- | --- | --- | --- | --- | --- | --- | --- | --- | --- | --- | --- | --- | --- | --- | --- | --- | --- |
| HCC-366 | 0.0305 | 0.0271 | 0.0302 | 0.0382 | 0.031 | 0.0297 | 0.0246 | 0.029 | 0.0344 | 0.0355 | 0.0857 | 0.0157 | 0.0133 | 0.0162 | 0.018 | 0.0207 | 0.0269 | 0.0257 | 0.0337 | 0.0244 |
| HCC-827 | 0.292 | 0.302 | 0.21 | 0.241 | 0.283 | 0.6 | 0.541 | 0.322 | 0.382 | 0.388 | 0.675 | 0.894 | 0.307 | 0.296 | 0.204 | 0.251 | 0.214 | 0.18 | 0.233 | 0.149 |
| HOP-62 | 0.0752 | 0.0748 | 0.0769 | 0.0912 | 0.0784 | 0.0606 | 0.0715 | 0.0848 | 0.0699 | 0.0611 | 0.218 | 0.626 | 0.0574 | 0.0819 | 0.0635 | 0.0518 | 0.0592 | 0.0621 | 0.0833 | 0.0796 |
| IA-LM | – | – | – | – | – | 0.0879 | 0.0508 | 0.0707 | 0.0558 | 0.0544 | 0.0891 | 0.0621 | 0.0599 | 0.0518 | 0.0471 | 0.0691 | 0.0691 | 0.0591 | 0.059 | 0.051 |
| LC-2-ad | 0.191 | 0.187 | 0.143 | 0.165 | 0.166 | 0.141 | 0.106 | 0.103 | 0.103 | 0.117 | 0.226 | 0.207 | 0.198 | 0.171 | 0.143 | 0.197 | 0.172 | 0.191 | 0.185 | 0.17 |
| LCLC-97TM1 | 0.163 | 0.161 | 0.143 | 0.0911 | 0.13 | 0.101 | 0.141 | 0.0914 | 0.117 | 0.101 | 0.155 | 0.307 | 0.103 | 0.0898 | 0.119 | 0.071 | 0.0753 | 0.0572 | 0.0546 | 0.0434 |
| LCLC-103H | 0.123 | 0.136 | 0.156 | 0.103 | 0.164 | 0.269 | 0.254 | 0.266 | 0.234 | 0.265 | 0.838 | 0.917 | 0.321 | 0.335 | 0.3 | 0.344 | 0.321 | 0.286 | 0.254 | 0.296 |
| LK-2 | 0.141 | 0.187 | 0.17 | 0.121 | 0.151 | 0.146 | 0.263 | 0.268 | 0.198 | 0.238 | 0.197 | 0.255 | 0.266 | 0.226 | 0.215 | 0.117 | 0.143 | 0.145 | 0.169 | 0.127 |
| LOU-NH91 | 0.35 | 0.37 | 0.27 | 0.367 | 0.382 | 0.367 | 0.428 | 0.439 | 0.374 | 0.356 | 0.515 | 0.471 | 0.476 | 0.45 | 0.472 | 0.577 | 0.588 | 0.566 | 0.388 | 0.374 |
| LU99A | 0.131 | 0.16 | 0.114 | 0.106 | 0.155 | 0.12 | 0.106 | 0.0914 | 0.146 | 0.122 | 0.23 | 0.0986 | 0.168 | 0.133 | 0.143 | 0.147 | 0.152 | 0.137 | 0.131 | 0.161 |
| LXF-289 | 0.0597 | 0.064 | 0.0627 | 0.0541 | 0.0561 | 0.192 | 0.151 | 0.16 | 0.103 | 0.123 | 0.417 | 0.287 | 0.24 | 0.168 | 0.121 | 0.22 | 0.185 | 0.188 | 0.151 | 0.104 |
| NCI-H522 | – | 0.332 | 0.494 | – | 0.416 | – | – | – | – | – | – | – | – | – | – | 0.272 | 0.322 | 0.265 | 0.369 | 0.411 |
| NCI-H1299 | – | – | – | – | – | 0.0583 | 0.0875 | 0.103 | 0.0673 | 0.0511 | 0.16 | 0.16 | 0.191 | 0.19 | 0.102 | – | – | – | – | – |
| NCI-H1395 | 0.27 | 0.362 | 0.315 | 0.29 | 0.326 | 0.386 | 0.371 | 0.305 | 0.343 | 0.377 | – | – | – | – | – | 0.302 | 0.405 | 0.31 | 0.312 | 0.339 |
| NCI-H1563 | 0.394 | 0.462 | 0.408 | 0.229 | 0.312 | 0.593 | 0.519 | 0.614 | 0.561 | 0.584 | 0.604 | 0.557 | 0.526 | 0.553 | 0.527 | – | – | – | – | – |
| NCI-H1648 | – | – | – | – | – | – | – | – | – | – | – | – | – | – | – | 0.217 | 0.48 | 0.339 | 0.342 | 0.245 |
| NCI-H1703 | – | – | – | – | – | 0.102 | 0.0942 | 0.162 | 0.159 | 0.167 | 0.15 | 0.103 | 0.0957 | 0.115 | 0.0425 | – | – | – | – | – |
| NCI-H1792 | 0.483 | 0.294 | 0.256 | 0.271 | 0.196 | 0.193 | 0.149 | 0.122 | 0.0959 | 0.0891 | 0.38 | 0.453 | 0.245 | 0.186 | 0.108 | – | – | – | – | – |
| NCI-H1793 | 0.113 | 0.145 | 0.151 | 0.121 | 0.145 | 0.195 | 0.203 | 0.163 | 0.172 | 0.15 | – | – | – | – | – | 0.189 | 0.139 | 0.127 | 0.124 | 0.133 |
| NCI-H2342 | 0.297 | 0.283 | 0.258 | 0.249 | 0.284 | – | – | – | – | – | – | – | – | – | – | 0.28 | 0.288 | 0.267 | 0.234 | 0.265 |
